Laboratory results reported in patent US10098899B2, “Drug with activity against the herpes virus family” (priority 2010, dated 2018).

Columns and labels:
[1] = test system: Herpes virus of type II; assay: Antiviral activity in Vero cells, unaltered cells, herpes virus of type II; type: cell-based; details: for Number (%) of unaltered cells, percent / Number of unaltered cells: Herpes virus of type II, Vero cells, 50 mg/1 of preparation; for Number of unaltered cells: non-infected reference 10000
Protocol: (§1) Determining Activity Against Herpes Viruses of Type 1 and 11.
(§2) Herpes simplex virus (strain EC) was grown in Vero cells cultured in MEM medium with the addition of 0.2% bovine serum and 50 mg/1 of the preparations under study.

[2] = test system: Herpes virus of type I; assay: Antiviral activity in Vero cells, unaltered cells, herpes virus of type I; type: cell-based; details: 50 mg/1 of preparation; for Number of unaltered cells: non-infected reference 10000
Protocol: as §1, §2

[3] = test system: type I herpes simplex virus (strain EC); assay: Herpetic pneumonia in white mice: virus titer in lungs (titration on Vero cells); type: in vivo, white non-pedigree mice; details: for Virus titer in lungs of mice on day 3 after the infection: day 3 after infection, 50 mg/kg intragastrically, 24 h and 1 h prior to and 24 h and 48 h after infection
Protocol: Antiviral activity of the inventive substance was determined using the model of pneumonia in white mice caused by type I herpes simplex virus.
Herpes simplex virus of type I (strain EC) was accumulated in Vero cells cultured in MEM medium with the addition of 0.2% bovine serum, 50 μg/ml of gentamicin. Virus titration was performed on Vero cells cultured in 96-well plates. Results were recorded after a pronounced cytopathic effect (CPE) appeared in virus control. The degree of intactness of the cellular monolayer was assessed visually, virus titer was calculated as the reciprocal value of Briggs logarithm of the largest dilution of the source material that is still able to produce visually notable manifestations of CPE in the cell culture (CTD50).
For assessing the virus inhibiting action of the preparations, white non-pedigree mice weighing 12-15 g (“Rappolovo” farm, Leningrad Region) were infected intranasally under a light ether anaesthesia with the herpes simplex virus in the dosage of 106 (CTD50)/0.05 ml. The preparation under study was administered intragastrically in the dosage of 50 mg/kg of weight according to a medical-preventive scheme (24 h and 1 h prior to infection, and 24 h and 48 h after the animals were infected). On day 3 the lungs of the infected animals were removed, homogenized in the presence of 10-fold volume of phosphate buffer and then 10-fold dilutions from 10-1 to 10-6 were prepared thereof. Dilutions of the lungs homogenate were used for infecting the intact culture of Vero cells and for titration of virus progeny. Positive reference was represented by lungs of mice that instead of the studied preparation received physiological solution by intragastric administration, whereas negative reference was represented by lungs of mice that received aciclovir in the dosage of 50 mg/kg of weight according to the same scheme. Each experimental group consisted of 10 animals.

[4] = test system: type I herpes simplex virus (strain EC); assay: Herpetic pneumonia in white mice: histologic (morphometric) examination of lungs; type: in vivo, white non-pedigree mice

Nc1nc2c(ncn2COCCO)c(=O)[nH]1 [Aciclovir, 2-amino-1,9-dihydro-9-[(2-hydroxyethoxy)methyl]-6H-purine-6-on, reference compound]
Number (%) of unaltered cells, percent [1]: (70%) | Number of unaltered cells [1]: 7000 | Number (%) of unaltered cells, percent [2]: (65%) | Number of unaltered cells [2]: 7000 | Virus titer in lungs of mice on day 3 after the infection [3]: 1.4 ± 0.34 Lg CTD50 | Area of an inflammation focus in section ([4]; term 2 days): 55 ± 9.4 | Number of inflammation foci in one animal ([4]; term 2 days): 8 | Area of an inflammation focus in section ([4]; term 4 days): 58 ± 14.7 | Number of inflammation foci in one animal ([4]; term 4 days): 3 | Area of an inflammation focus in section ([4]; term 6 days): 24 ± 6.4 | Number of inflammation foci in one animal ([4]; term 6 days): 3

(2,6-dichlorophenyl)amide salt of carbopentoxysulfanilic acid [The inventive substance]
Number (%) of unaltered cells, percent [1]: (90%) | Number of unaltered cells [1]: 9000 | antiviral activity compared with aciclovir (in words) ([1]; in particular against the herpes virus of type II): significantly exceeds that of the aciclovir | Number (%) of unaltered cells, percent [2]: (80%) | Number of unaltered cells [2]: 8000 | virus-inhibitory activity at the model of herpetic pneumonia in vivo (in words) ([3]; compared with aciclovir at the same dosage): statistically significant virus-inhibitory activity | Virus titer in lungs of mice on day 3 after the infection [3]: 1.0 ± 0.11 Lg CTD50 | Area of an inflammation focus in section ([4]; term 2 days): 47 ± 7.3 | Number of inflammation foci in one animal ([4]; term 2 days): 3 | Area of an inflammation focus in section ([4]; term 4 days): 49 ± 12.1 | Number of inflammation foci in one animal ([4]; term 4 days): 2 | Area of an inflammation focus in section ([4]; term 6 days): 14 ± 5.5 | Number of inflammation foci in one animal ([4]; term 6 days): 1
